According to article PMC11352099 (RSC Medicinal Chemistry, 2024):
Where two headings read alike, the source gives them in different places.

Columns and labels:
[1] = microsomes, 0.75 h, 10 µM, pH 7.4
SARS-CoV-2 nsp14 MTase = SARS-CoV-2 nsp14 MTase (Severe acute respiratory syndrome coronavirus 2, UniProt P0DTD1); assay: biochemical; type: biochemical; conditions: for Hill slope: Table S1, dose-response curve, variable slope model
[2] = for Plasma stability % of the parent compound after 120 min, Human: 10 μM
[3] = microsomes, 0.75 h, 10 µM, pH 7.4; remark: listed apart in the source
in vitro [4] = conditions: human; for efflux ratio at 2 h, 10 µM: Caco-2; for Papp A→B at 2 h, 10 µM / Papp B→A at 2 h, 10 µM: Caco-2, pH 7.4
Procedure: (§1) 3.5. Caco-2 permeability assay
(§2) Transepithelial bi-directional transport of compounds (10 µM, pH 7.4/7.4) was tested on 21-day differentiated Caco-2 monolayers. Briefly, the cells were seeded at a density of 67 ,500 cells per 96-well plate insert (Millicell®, Merck KGaA, Darmstadt, Germany). They were left to differentiate for 21 days with medium exchange every 2–3 days. Prior to the experiment, the medium from both apical and basolateral well was exchanged for HBSS buffer (containing 10 mM HEPES and 25 mM glucose) and left to equilibrate for 30 min. Compound permeability was assayed by replacing pure HBSS with HBSS containing 10 μM compounds and 220 μM Lucifer yellow (LY) solution in an apical insert (A to B transport) or in a basolateral well (B to A transport). The tre ated cells were then returned to the incubator for 2 h at 37 °C. After that, samples were collected from both apical inserts and basolateral wells and analyzed using LC -MS/MS (SCIEX Triple Quad™ 7500 QTRAP® Ready). LC separation was done on Synergi 4µm Fusion 50 × 2 mm column (Phenomenex) using a water/acetonitrile gradient with 0.1% formic acid starting from 2 to 98% for 4.5 min.
(§3) The apparent permeability coefficient (Papp) was calculated from t he following equation: Papp = (dQ / dt) / C0 * A, where dQ/dt is the rate of absorption of the drug across the cells, C0 is the donor compartment concentration at time zero, and A is the area of the monolayer. Efflux ratio was expressed as (Papp B -A) / (Papp A-B). Recovery (%) was determined as (total compound mass i n donor and receiver compartments at the end of the incubation / initial compound mass in the donor compartment) x 100. The data represent means ± SD of two independent experiments performed in triplicate. […]
(§4) were used as control compounds.

Caco-2 monolayers = assay: in vitro; conditions: Caco-2
Procedure: as §1, §2, §3, §4

[5] = for Plasma stability % of the parent compound after 120 min, Mouse: 10 μM
human RNMT = human RNMT (Homo sapiens, UniProt O43148); assay: Off-target inhibition of human RNMT; type: biochemical; conditions: for inhibitory activity against RNMT: 25 μM concentration of inhibitor
Excerpt: Human cells rely on several MTases; therefore, it is necessary to assess the possible off-target effect. […]

[6] = test system: SARS-CoV-2 strain hCoV-19/Czech Republic/NRL_6632_2/2020; assay: microbe, parasite or virus in culture; type: cell-based; conditions: Calu-3 cell line, read-out: EC50 (antiviral effect)
in vitro [7] = conditions: human
[8] = Table 1 and text, N.I., no inhibition, read-out: IC50
[9] = Table S1, read-out: IC50 (inhibitory activity)
[10] = Severe acute respiratory syndrome coronavirus 2
[11] = Table 1 and text, N.I., no inhibition

human RNMT, sequence (O43148 whole entry): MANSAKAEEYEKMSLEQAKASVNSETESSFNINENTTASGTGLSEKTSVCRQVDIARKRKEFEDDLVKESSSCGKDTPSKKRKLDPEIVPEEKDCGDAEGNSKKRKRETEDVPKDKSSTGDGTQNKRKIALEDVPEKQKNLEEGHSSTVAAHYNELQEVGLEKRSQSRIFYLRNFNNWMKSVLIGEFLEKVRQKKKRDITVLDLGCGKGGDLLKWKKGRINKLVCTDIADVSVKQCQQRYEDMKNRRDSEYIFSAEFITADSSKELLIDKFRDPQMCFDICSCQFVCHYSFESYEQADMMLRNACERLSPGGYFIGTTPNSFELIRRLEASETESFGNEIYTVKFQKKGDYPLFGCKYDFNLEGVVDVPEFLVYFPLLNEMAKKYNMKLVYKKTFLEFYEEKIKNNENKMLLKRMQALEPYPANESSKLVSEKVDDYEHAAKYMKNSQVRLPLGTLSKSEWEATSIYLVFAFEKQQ

Row | SMILES | Microsomal stability % of the parent compound after 45 min, Mouse [1] | IC50 (SARS-CoV-2 nsp14 MTase; [8]) | Hill slope (SARS-CoV-2 nsp14 MTase) | IC50 (SARS-CoV-2 nsp14 MTase; [9]) | Plasma stability % of the parent compound after 120 min, Human [2] | Microsomal stability % of the parent compound after 45 min, Human [3] | recovery at 2 h, 10 µM (in vitro [4]; Caco-2, Recovery (%) A-B) | Papp B→A at 2 h, 10 µM (in vitro [4]) | Papp B-A (Caco-2 monolayers) | Plasma stability % of the parent compound after 120 min, Mouse [5] | inhibitory activity against nsp14 (in words) (SARS-CoV-2 nsp14 MTase) | further results
1 | Nc1ncnc2c1ncn2[C@@H]1O[C@H](C(=O)Nc2ccc3c(C(F)(F)F)cc(=O)oc3c2)[C@@H](O)[C@H]1O [12m] | 93 ± 9.4% | 1.47 ± 0.14 µM | -1.01 | 1.47 µM | 20 ± 1.4% | 90 ± 9.1% | 96% | 32.9 ± 5.3 ×10⁻⁶ cm/s | 32.9 ± 5.3 cm/s x 10-6 | 67 ± 3.5% | – | stability in human plasma (in words) ([2]; plasma): unstable; efflux ratio at 2 h, 10 µM (in vitro [4]): 4.1; recovery at 2 h, 10 µM (in vitro [4]; Caco-2, Recovery (%) B-A): 130%; Papp A→B at 2 h, 10 µM (in vitro [4]): 8 ± 2.9 ×10⁻⁶ cm/s; Papp A-B (Caco-2 monolayers): 8.0 ± 2.9 cm/s x 10-6; stability in mouse plasma (in words) ([5]; plasma): unstable
2 | Cc1cc(=O)[nH]c2cc(NC(=O)[C@H]3O[C@@H](n4cnc5c(N)ncnc54)[C@H](O)[C@@H]3O)ccc12 [12n] | 90 ± 2.9% | 0.35 ± 0.04 µM | -1.19 | – | 97 ± 2.0% | 95 ± 0.0% | 79% | 2.2 ± 0.4 ×10⁻⁶ cm/s | 2.2 ± 0.4 cm/s x 10-6 | 78 ± 0.3% | – | inhibitory activity against RNMT (human RNMT): None of the tested compounds exhibited any inhibitory activity; efflux ratio at 2 h, 10 µM (in vitro [4]): 0.5; recovery at 2 h, 10 µM (in vitro [4]; Caco-2, Recovery (%) B-A): 87%; Papp A→B at 2 h, 10 µM (in vitro [4]): 4.4 ± 1.8 ×10⁻⁶ cm/s; Papp A-B (Caco-2 monolayers): 4.4 ± 1.8 cm/s x 10-6; EC50 [6, 10]: > 50 µM
3 | Nc1ncnc2c1ncn2[C@@H]1O[C@H](C(=O)Nc2ccc3c(c2)NC(=O)CC3)[C@@H](O)[C@H]1O [12o] | – | 6.55 ± 1.44 µM | -0.91 | 6.55 µM | – | – | – | – | – | – | – | –
4 | Nc1ncnc2c1ncn2[C@@H]1O[C@H](C(=O)Nc2ccc3cccnc3c2)[C@@H](O)[C@H]1O [12p] | – | 4.81 ± 2.54 µM | -1.45 | 4.81 µM | – | – | – | – | – | – | – | –
5 | Cc1cc(=O)oc2cc(NC(=O)[C@H]3O[C@@H](n4cc(C#Cc5cncnc5)c5c(N)ncnc54)[C@H](O)[C@@H]3O)ccc12 [18l] | 84 ± 2.5% | 0.031 ± 0.005 µM | -1.09 | – | 74 ± 0.2% | 90 ± 4.2% | 87% | 8.3 ± 0.5 ×10⁻⁶ cm/s | 8.3 ± 0.5 cm/s x 10-6 | 89 ± 1.1% | – | IC50 (human RNMT): > 25 µM; inhibitory activity against RNMT (human RNMT): None of the tested compounds exhibited any inhibitory activity; CC50 at 3 days (in vitro [7]): > 50 µM; EC50 ([6]; Severe acute respiratory syndrome coronavirus 2, 72 h, MOI ∼0.01, 3 days): 12 ± 6 µM
6 | Cc1cc(=O)[nH]c2cc(N(C)C(=O)[C@H]3O[C@@H](n4cc(C#Cc5cncnc5)c5c(N)ncnc54)[C@H](O)[C@@H]3O)ccc12 [18q] | 117 ± 10.9% | 0.89 ± 0.12 µM | -1.02 | 0.891 µM | 80 ± 1.1% | 107 ± 6.6% | 89% | 2.1 ± 0.4 ×10⁻⁶ cm/s | 2.1 ± 0.4 cm/s x 10-6 | 86 ± 0.9% | – | inhibitory activity against RNMT (human RNMT): None of the tested compounds exhibited any inhibitory activity; efflux ratio at 2 h, 10 µM (in vitro [4]): 1; recovery at 2 h, 10 µM (in vitro [4]; Caco-2, Recovery (%) B-A): 101%; Papp A→B at 2 h, 10 µM (in vitro [4]): 2 ± 0.3 ×10⁻⁶ cm/s; Papp A-B (Caco-2 monolayers): 2.0 ± 0.3 cm/s x 10-6; EC50 [6, 10]: > 50 µM
7 | COC(=O)c1ccc(C(=O)NC[C@H]2O[C@@H](n3cnc4c(N)ncnc43)[C@H](O)[C@@H]2O)cc1 [21a] | – | – | – | – | – | – | – | – | – | – | significant decrease or complete loss of the inhibitory activity | IC50 (SARS-CoV-2 nsp14 MTase; [11]): N.I.
8 | Nc1ncnc2c1ncn2[C@@H]1O[C@H](CNC(=O)c2ccc3c(c2)OCCO3)[C@@H](O)[C@H]1O [21k] | – | – | – | – | – | – | – | – | – | – | significant decrease or complete loss of the inhibitory activity | IC50 (SARS-CoV-2 nsp14 MTase; [11]): N.I.
9 | Nc1ncnc2c1ncn2[C@@H]1O[C@H](CNS(=O)(=O)c2ccc3c(c2)OCCO3)[C@@H](O)[C@H]1O [22k] | – | 15.3 ± 2.55 µM | -1.55 | – | – | – | – | – | – | – | significant decrease or complete loss of the inhibitory activity | –
10 | C[C@H]1O[C@@H](O[C@H]2[C@@H](O)C[C@H](O[C@H]3[C@@H](O)C[C@H](O[C@H]4CC[C@@]5(C)[C@H](CC[C@@H]6[C@@H]5C[C@@H](O)[C@]5(C)[C@@H](C7=CC(=O)OC7)CC[C@]65O)C4)O[C@@H]3C)O[C@@H]2C)C[C@H](O)[C@@H]1O [Digoxin, reference compound] | – | – | – | – | – | – | – | – | – | – | – | recovery at 2 h, 10 µM (in vitro [4]; Caco-2, Recovery (%) A-B, Table S2, A to B transport): 131%; recovery at 2 h, 10 µM (in vitro [4]; Caco-2, Recovery (%) B-A, Table S2, B to A transport): 77%
11 | Cc1cc(=O)oc2cc(SC[C@H]3O[C@@H](n4cnc5c(N)ncnc54)[C@H](O)[C@@H]3O)ccc12 [compound 24] | – | 3.67 ± 0.4 µM | -1.04 | 3.67 µM | – | – | – | – | – | – | significant decrease or complete loss of the inhibitory activity | –
12 | Cc1cc(=O)oc2cc(S(=O)(=O)C[C@H]3O[C@@H](n4cnc5c(N)ncnc54)[C@H](O)[C@@H]3O)ccc12 [compound 25] | – | > 25 µM | – | – | – | – | – | – | – | – | significant decrease or complete loss of the inhibitory activity | –
